How the values were obtained:
[1] = tested on: normal human keratinocytes stimulated with PMA; test: TNF-alpha assay in keratinocytes stimulated with PMA; assay type: cell-based; settings: 0.1 μM, 24 h pretreatment; for TNF-alpha, change vs PMA: then 10 μg/ml PMA; for TNF-alpha, mean: then 10 μg/ml PMA overnight
Experimental: (§1) The anti-inflammatory activity of the Chlamydomonas acidophila extract according to the invention was evaluated on a model of inflammation induced on keratinocytes by PMA (phorbol 12-myristate 13-acetate) treatment. The release of the cytokines TNFα and prostaglandin E2 (PGE2) was analyzed.
(§2) Normal human epidermal keratinocytes were pretreated for 24 h with the Chlamydomonas acidophila (CAP) extract according to Example 1, at concentrations comprised between 0.0001% and 0.05% dry matter, or with the anti-inflammatory reference molecules dexamethasone at 0.1 μM or indomethacin at 0.1 μM (the latter two references serving as anti-inflammatory references for cytokines and prostaglandins, respectively).
(§3) Inflammation was then induced by addition of PMA at 10 μg/mL overnight.
(§4) A TNFα and PGE2 assay was then performed in the cell culture supernatants.
(§5) The significance of the results was checked by a one-way ANOVA followed by a Tuckey test (GraphPad Prism software version 5.02, GraphPad Software, San Diego Calif. USA).

[2] = tested on: normal human keratinocytes stimulated with PMA; test: PGE2 assay in keratinocytes stimulated with PMA; assay type: cell-based; settings: 0.1 μM, 24 h pretreatment; for PGE2, change vs PMA: then 10 μg/ml PMA; for PGE2, mean: then 10 μg/ml PMA overnight
Experimental: as §1, §2, §3, §4, §5

[3] = tested on: cadmium-stimulated normal human keratinocytes; test: PGE2 assay in cadmium-stimulated keratinocytes; assay type: cell-based; settings: 0.1 μM, 24 h pretreatment, then 100 μM CdCl2 48 h
Experimental: Normal human epidermal keratinocytes were pretreated for 24 hours with the CAP extract at 0.001% and 0.01% dry matter or with the anti-inflammatory reference molecule indomethacin at […]. The keratinocytes were then treated for 48 hours with cadmium: CdCl2 at 100 μM. At the end of the incubation, the amount of PGE2 produced by the cells was assessed by ELISA in the supernatants. The concentration of PGE2 assayed was normalized to the amount of total intracellular protein assessed by BC Assay.

[4] = tested on: keratinocytes treated with hydrogen peroxide (H2O2); test: ROS production (DCFH-DA) in keratinocytes treated with H2O2; assay type: cell-based, human; settings: 24 h preincubation, 100 μM H2O2 20 minutes
Description: The evaluation of the antioxidant effect of the active agent is done through the incorporation of DCFH-DA (2′,7′-dichlorofluorescin diacetate) into cultured keratinocytes. This molecule is a non-fluorescent marker in the non-oxidized state. Under oxidizing conditions (here H2O2 stress), DCFH-DA will be degraded to DCF, a molecule that will emit fluorescence. The fluorescence measured will be proportional to the amount of reactive oxygen species produced by the cell in the presence of H2O2 and/or the extract. Normal human epidermal keratinocytes were preincubated for 24 hours in the presence of the CAP extract at 0.0001% dry matter, quercetin at 10 μM or vitamin C at 500 μM (the latter two molecules serving as antioxidant reference). The cells are then treated for 1 h in the presence of 0.5 mM DCFH-DA. Oxidation is induced by adding 100 μM H2O2 for 20 minutes. A second treatment with the tested products is performed simultaneously with H2O2 stress (at the same concentrations as the pretreatment). Finally, a measurement of the fluorescence density (DFU) corresponding to the amount of ROS is performed using a microplate reader. The significance of the results was checked by a one-way ANOVA followed by a Tuckey test (GraphPad Prism software version 5.02, GraphPad Software, San Diego Calif. USA).

human basophils = test: Basophil activation test (Flow CAST), fMLP-stimulated; assay type: cell-based; settings: whole blood, 1 μM fMLP
Experimental: (§6) The potential anti-allergic effects of the Chlamydomonas acidophila extract were investigated on: • Gene expression of pro-inflammatory chemokines in normal human epidermal keratinocytes (NHEK) stimulated by a mixture of Th2 cytokines (IL-4+IL-13+IL-22+TNF-α) mimicking a late-phase “atopic dermatitis” type phenotype (chronic inflammation). • Activation of human basophils induced by fMLP. This activation was measured using a specific kit and flow cytometry analysis by quantifying a specific marker of activated basophil cells (CD63) in the total population of basophils identified by expression of the CCR3 marker. In parallel, activation with the anti-FCεRI antibody was performed as a positive control.
The basophil activation test (BAT) was performed using the Flow CAST® kit (BUHLMANN, item code FKCCR).
Whole blood was preincubated for 15 minutes in the presence of the CAP extract at 0.033% and 0.1% dry matter (DM) or the references (SB202190 at 30 μM; or cromoglycate at 10 mM).
The stimulant, 1 μM fMLP, was then added and the blood was incubated for an additional 15 minutes in the presence of the labeling buffer containing a mixture of monoclonal antibodies (anti-CD63-FITC and anti-CCR3-PE).
Flow cytometry analysis was then performed to count the total population of basophils (CCR3+) and activated basophils (CCR3+/CD63+).

[5] = tested on: NiSO4-stimulated normal human keratinocytes; test: IL8 assay in NiSO4-stimulated keratinocytes; assay type: cell-based; settings: 1 μM, 24 h pretreatment, then 10 μM NiSO4 24 h
Experimental: Normal human epidermal keratinocytes were pretreated for 24 hours with CAP extract at 0.01% and 0.05% dry matter or with the anti-inflammatory reference molecule dexamethasone at 1 μM. The keratinocytes were then treated for 24 hours with nickel: NiSO4 at 10 μM. At the end of the incubation, the amount of IL8 produced by the cells was assessed by ELISA in the supernatants.
The concentration of IL8 assayed was normalized to the amount of total intracellular protein assessed by BC Assay.
Significance of results was statistically analyzed by a Student's t-test.

[6] = tested on: epidermal keratinocytes subjected to Th2 stress; test: qRT-PCR gene expression in keratinocytes subjected to Th2 stress; assay type: cell-based, human; settings: 10 μM, 24 h preincubation, Th2 cytokine cocktail 24 h; control = 100
Experimental: as §6
Normal human epidermal keratinocytes were preincubated for 24 hours in the presence of the CAP extract at 0.01% dry matter (DM) or reference JAK inhibitor I at 10 μM. After preincubation, the cells were retreated with the CAP extract or reference and then the cells were stimulated with a Th2 cytokine cocktail (IL4+1L13+1L22+TNFα at 10 ng/ml) for 24 hours.
At the end of incubation, gene expression of markers of interest was assessed by qRT-PCR.

Question: `COc1ccc2c(c1)c(CC(=O)O)c(C)n2C(=O)c1ccc(Cl)cc1` [indomethacin] was tested. Which “TNF-alpha, change vs PMA” value [1] did it give?
Answer: Its value is −60%.

Question: And the “TNF-alpha, mean” value [1]?
Answer: Its value is 113.266 pg/mL.

Question: And the “PGE2, change vs PMA” value [2]?
Answer: The value was −87% vs PMA.

Question: And the “PGE2, mean” value [2]?
Answer: The value was 163.031 pg/mL.

Question: What about the “PGE2, change vs Cd” value [3] of the same compound?
Answer: The value was −54% vs Cd.

Question: And the “PGE2, mean” value [3]?
Answer: Its value is 3.874 pg/μg of protein.

Question: Which “ROS, change vs H2O2” value ([4]; 500 μM) does the source give for `O=C1O[C@H]([C@@H](O)CO)C(O)=C1O` [Vitamin C, vitamin C] here?
Answer: Its value is −89% vs H2O2.

Question: What about the “ROS, mean” value ([4]; 500 μM) of the same compound?
Answer: Its value is 10932.50 fluorescence units.

Question: Which “% of activated basophils (CCR3+/CD63+), mean” value (human basophils; 30 μM) does the source give for `Oc1ccc(-c2nc(-c3ccncc3)c(-c3ccc(F)cc3)[nH]2)cc1` [SB202190] here?
Answer: The value was 30.4%.

Question: How did the “TNF-alpha, change vs PMA” value [1] turn out when `C[C@@H]1C[C@H]2[C@@H]3CCC4=CC(=O)C=C[C@]4(C)[C@@]3(F)[C@@H](O)C[C@]2(C)[C@@]1(O)C(=O)CO` [dexamethasone] was run?
Answer: Its value is −56% vs PMA.

Question: What about the “TNF-alpha, mean” value [1] of the same compound?
Answer: The value was 126.112 pg/mL.

Question: What about the “PGE2, change vs PMA” value [2] of the same compound?
Answer: The value was −22% vs PMA.

Question: What about the “PGE2, mean” value [2] of the same compound?
Answer: The value was 985.126 pg/mL.

Question: And the “IL8, change vs Ni” value [5]?
Answer: Its value is −63% vs Ni.

Question: What about the “IL8, mean” value [5] of the same compound?
Answer: The value was 1685 pg/ml/mg protein.

Question: `O=c1c(O)c(-c2ccc(O)c(O)c2)oc2cc(O)cc(O)c12` [Quercetin, quercetin] was tested. Which “ROS, change vs H2O2” value ([4]; 10 μM) did it give?
Answer: Its value is −92% vs H2O2.

Question: What about the “ROS, mean” value ([4]; 10 μM) of the same compound?
Answer: The value was 7787.00 fluorescence units.

Question: With `CC(C)(C)c1nc2c3cc[nH]c(=O)c3c3cc(F)ccc3c2[nH]1` [JAK inhibitor] as the compound, how does the “CCL5 Relative expression (%)” value [6] read?
Answer: Its value is 101%.

Question: What about the “CCL27 Relative expression (%)” value [6] of the same compound?
Answer: Its value is 1436%.

Question: For `O=C(O)c1cc(=O)c2c(OCC(O)COc3cccc4oc(C(=O)O)cc(=O)c34)cccc2o1` [cromoglycate], which “% of activated basophils (CCR3+/CD63+), mean” value (human basophils; 10 μM (table; text 10 mM)) is on record?
Answer: The value was 22.3%.

From US20220071891A1, “Extract of Chlamydomonas Acidophila, Method for Preparing Same and Cosmetic Compositions and Dermatological Compositions Comprising Same” (Laboratoires Expanscience, priority 2018, published 2022)
